Results taken from publication PMC3720860, “Molecular and Functional Characterization of Odorant-Binding Protein Genes in an Invasive Vector Mosquito, Aedes albopictus” (PLoS ONE, 2013).

Legend:
Assay type in all cases: binding
AalbOBP39 [1] = biological target: T1, AalbOBP39 (Aedes albopictus, UniProt M4W733); assay: direct fluorescence titration; conditions: 20 mM sodium acetate, pH 7.4, 25 C; 25 ug/ml protein; excitation 337 nm; reporter ligand
T1 construct: 6xHis-tag fusion, pET-22b(+), E. coli BL21 (DE3); Ni-NTA and gel filtration
T1 sequence (M4W733 19-143): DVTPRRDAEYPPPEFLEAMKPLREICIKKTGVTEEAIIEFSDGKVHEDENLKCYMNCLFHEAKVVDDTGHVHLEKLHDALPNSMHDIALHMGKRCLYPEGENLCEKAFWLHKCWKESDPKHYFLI

AalbOBP37 [2] = biological target: T2, AalbOBP37 (Aedes albopictus, UniProt M4VP05); assay: direct fluorescence titration; conditions: 20 mM sodium acetate, pH 7.4, 25 C; 25 ug/ml protein; excitation 337 nm; reporter ligand
T2 construct: 6xHis-tag fusion, pET-22b(+), E. coli BL21 (DE3); Ni-NTA and gel filtration
T2 sequence (M4VP05 19-149 limits assumed): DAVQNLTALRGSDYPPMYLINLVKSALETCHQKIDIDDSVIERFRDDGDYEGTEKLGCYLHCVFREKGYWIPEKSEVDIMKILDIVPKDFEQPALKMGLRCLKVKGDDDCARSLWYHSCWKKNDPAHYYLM

AalbOBP37 [3] = biological target: T2, AalbOBP37; assay: 1-NPN competitive fluorescence displacement; conditions: 20 mM sodium acetate, pH 7.4, 25 C; 25 ug/ml protein; ligand 6.4-19.2 uM; 32 uM 1-NPN
AalbOBP39 [4] = biological target: T1, AalbOBP39; assay: 1-NPN competitive fluorescence displacement; conditions: 20 mM sodium acetate, pH 7.4, 25 C; 25 ug/ml protein; ligand 6.4-19.2 uM; 30.4 uM 1-NPN

Compound | direct fluorescence titration (AalbOBP39 [1]) | direct fluorescence titration (AalbOBP37 [2]) | normalized 1-NPN fluorescence (AalbOBP37 [3]) | normalized 1-NPN fluorescence (AalbOBP39 [4])
c1ccc(Nc2cccc3ccccc23)cc1 [N-phenyl-1-naphthylamine] | only target OBPs could bind 1-NPN, which showed increasing fluorescent intensity | only target OBPs could bind 1-NPN, which showed increasing fluorescent intensity | – | –
Cc1c[nH]c2ccccc12 [skatole] | – | – | AalbOBP37 and AalbOBP39 exhibited relatively strong binding to both indole and skatole | AalbOBP37 and AalbOBP39 exhibited relatively strong binding to both indole and skatole
c1ccc2[nH]ccc2c1 [indole] | – | – | AalbOBP37 and AalbOBP39 exhibited relatively strong binding to both indole and skatole | AalbOBP37 and AalbOBP39 exhibited relatively strong binding to both indole and skatole
CCN(CC)C(=O)c1cccc(C)c1 [DEET] | – | – | AalbOBP37 showed high affinity to DEET and 1-octen-3-ol | AalbOBP39 showed relatively low affinity to DEET and 1-octen-3-ol
C=CC(O)CCCCC (stereo not shown) [1-octen-3-ol] | – | – | AalbOBP37 showed high affinity to DEET and 1-octen-3-ol | AalbOBP39 showed relatively low affinity to DEET and 1-octen-3-ol
